Patent US5756488A, “Composition for improving calcium metabolism” (Kuraray Co., Ltd., priority 1995, dated 1998)

Assays:
[1] = tested on: 1,25-dihydroxyvitamin D3 receptor; details: from the literature; cited from earlier work
[2] = tested on: vitamin D-binding protein; details: from the literature; cited from earlier work
[3] = target: T1, vitamin D-binding protein (Rattus norvegicus, UniProt P04276); assay: Assay of affinity for vitamin D-binding protein (displacement of tritium-labeled 25-hydroxyvitamin D3, serum of vitamin D-deficient rat); details: ratio of ED50 with control = 1, for Compounds 1, 2 and 3 30% replacement values were used
T1 construct: from tissue; host or cells: serum of vitamin D-deficient rat, diluted 1:10000, protein not purified
T1 sequence (P04276 17-476): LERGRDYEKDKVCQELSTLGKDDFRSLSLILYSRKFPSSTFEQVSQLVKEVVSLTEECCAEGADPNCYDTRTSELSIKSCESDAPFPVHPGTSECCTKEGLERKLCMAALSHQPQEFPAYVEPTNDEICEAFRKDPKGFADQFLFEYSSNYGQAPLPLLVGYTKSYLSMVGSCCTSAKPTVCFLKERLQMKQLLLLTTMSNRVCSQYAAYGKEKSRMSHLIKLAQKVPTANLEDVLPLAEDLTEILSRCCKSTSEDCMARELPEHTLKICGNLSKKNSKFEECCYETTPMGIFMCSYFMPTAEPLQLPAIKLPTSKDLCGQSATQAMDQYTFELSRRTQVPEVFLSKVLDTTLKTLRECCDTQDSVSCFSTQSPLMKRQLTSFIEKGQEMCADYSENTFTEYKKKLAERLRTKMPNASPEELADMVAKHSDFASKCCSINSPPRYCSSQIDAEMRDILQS
Method: Assay of Affinity for Vitamin D-Binding Protein
The serum of vitamin D-deficient rat was diluted 1:10000 with 3.5 mM barbiturate buffer solution (pH 8.6) containing 0.13 M NaCl. […] Then, 500 μl of the diluted solution of vitamin D deficient rat serum was added to each culture tube, which was then subjected to vortex stirring. After incubation at 4° C. for 1 hour, 250 μL of DCC suspension was added and vortex-stirred. Each of the culture tubes was allowed to stand for 15 minutes at 4° C., and centrifuged at 3000 rpm at 4° C. for 10 minutes.

[4] = Acute toxicity tests; details: in vivo

## C=C1/C(=C\C=C2/CCC[C@]3(C)[C@@H]([C@H](C)OCCC(C)(C)O)CC[C@@H]23)C[C@@H](O)C[C@@H]1O [22-oxa-1,25-dihydroxyvitamin D3]
[1]
  Affinity for the D3 receptor relative to 1,25-dihydroxyvitamin D3: one-eighth
[2]
  Affinity for vitamin D-binding protein relative to 1,25-dihydroxyvitamin D3: about one six-hundredth

## C=C1/C(=C\C=C2/CCC[C@]3(C)[C@@H]([C@H](C)[C@@H](C)CCC(C)(C)O)CC[C@@H]23)C[C@@H](O)C[C@@H]1O [Compound 4, (20R,22S)-22-methyl-1α,25-dihydroxyvitamin D3]
[3]
  Affinity for vitamin D-binding protein relative to 1α,25-dihydroxyvitamin D3: 2/3

## C=C1/C(=C\C=C2/CCC[C@]3(C)[C@@H]([C@@H](C)[C@@H](C)CCC(C)(C)O)CC[C@@H]23)C[C@@H](O)C[C@@H]1O [Compound 2, (20S,22S)-22-methyl-1α,25-dihydroxyvitamin D3]
[3]
  Affinity for vitamin D-binding protein relative to 1α,25-dihydroxyvitamin D3: 1/500

## C=C1/C(=C\C=C2/CCC[C@]3(C)[C@@H]([C@@H](C)[C@H](C)CCC(C)(C)O)CC[C@@H]23)C[C@@H](O)C[C@@H]1O [Compound 1, (20S,22R)-22-methyl-1α,25-dihydroxyvitamin D3]
[3]
  Affinity for vitamin D-binding protein relative to 1α,25-dihydroxyvitamin D3: 1/500 and lowest affinity
[3]; listed as (20S,22R)-22-methyl-1α,25-dihydroxyvitamin D3
  Affinity for vitamin D-binding protein relative to 1α,25-dihydroxyvitamin D3: one five-hundredth and low
[4]
  Toxicity in acute toxicity tests: low toxicity

## C=C1/C(=C\C=C2/CCC[C@]3(C)[C@@H]([C@H](C)[C@H](C)CCC(C)(C)O)CC[C@@H]23)C[C@@H](O)C[C@@H]1O [Compound 3, (20R,22R)-22-methyl-1α,25-dihydroxyvitamin D3]
[3]
  Affinity for vitamin D-binding protein relative to 1α,25-dihydroxyvitamin D3: 1/220
